US6303619A, “Meta-substituted acidic 8-phenylxanthine antagonists of A3 human adenosine receptors” (priority 1998, dated 2001)

Molecular target: T1, human A3 adenosine receptor (Homo sapiens, UniProt P0DMS8)
T1 construct: clone HS-21a contained the complete open reading frame corresponding to the human homolog of the rat A3 adenosine receptor; expressed in transfected cells; host or cells: CHO cells stably transfected with HS-21a cDNA
T1 sequence (P0DMS8 1-318): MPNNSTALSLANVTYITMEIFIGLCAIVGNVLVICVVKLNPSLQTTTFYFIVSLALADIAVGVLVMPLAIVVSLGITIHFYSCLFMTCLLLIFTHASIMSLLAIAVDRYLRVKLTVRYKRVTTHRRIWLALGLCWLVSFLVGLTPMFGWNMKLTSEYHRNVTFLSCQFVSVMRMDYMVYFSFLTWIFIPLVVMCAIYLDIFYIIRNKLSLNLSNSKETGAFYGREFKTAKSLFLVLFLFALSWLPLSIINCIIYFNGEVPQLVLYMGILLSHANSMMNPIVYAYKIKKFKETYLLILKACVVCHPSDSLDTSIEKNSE
Experiment: 125I-ABA binding to membranes of stably transfected CHO cells expressing the human A3 adenosine receptor (HS-21a)
Settings: human A3
Procedure: Membranes were prepared from transiently transfected COS7 cells […] after transfection or from G418-selected stably transfected CHO or HEK 293 cells. Cells were harvested in 1 mM EDTA in phosphate buffered saline and centrifuged at 2000×g for 10 minutes. The cell pellet was washed once with phosphate buffered saline. The cell pellet was resuspended in 2 mL of 5 mM Tris, pH 7.6/5mM MgCl2. Membranes were prepared from the cells by freeze-thaw lysis in which the suspension was frozen in a dry ice/ethanol bath and thawed at 25° C. twice. The suspension was homogenized after adding an additional 2 mL of 5 mM Tris, pH 7.6/5 mM MgCl2, in a glass dounce homogenizer with 20 strokes. The membranes were pelleted at 40,000×g at 4° C. for 20 minutes. The membrane pellet was resuspended at a protein concentration of 1-2 mg/mL in binding assay buffer, 50 mM Tris, pH 7.6/10 mM MgCl2. Protein concentration was determined by the method of Bradford ((1976) Anal. Biochem. 72: 248-250). […] Saturation binding of [^125 I]-N^6 -aminiobenizyladenosine (125I-ABA) or [^125 I]-N^6 -2-(4-amino-3-iodophenyl)ethyladenosine (APNEA) was performed on membranes prepared from pSVLA3 transfected COS7 cells. Membranes (100 μg) were incubated in the presence of 0.2 U/mL adenosine deaminase with increasing concentrations of ^125 I-ABA in the range of 0.1-30 nM for 120 minutes at 25° C. in a total volume of 500 μl. The binding assay was terminated by rapid filtration and three washes with ice-cold 50 mM Tris, pH 7.6/10 mM MgCl2 on a Skatron cell harvester equipped with a receptor binding flitermat (SKATRON INSTRUMENTS, INC). Non-specific binding was determined on non-transfected cells. Bound radioactivity was measured by scintillation counting in Ready Safe Scintillation Cocktail (BECKMAN).
The 1.7 kb HS-21a cDNA (A3) was subcloned as a SalI-BamHl fragment into the expression vector pCMV5 (Mumby, S. M., Heukeroth, R. O., Gordon, J. I. and Gilman, A. G. (1990) Proc. Natl. Acad. Sci. USA 87, 728-732.) creating the vector pCMV5-A3. CHO or HEK 293 cells stably expressing the human HS-21 a cDNA were prepared by co-transfection of 15 μg pCMV5-A3 and 1 μg pWLneo (Stratagene) using the calcium phosphate method. Stable cell lines were also generated using EBV based mammalian expression vectors, pREP (INVITROGEN). Neomycin resistant colonies were selected in 1 mg/mL G418 (GIBCO). Stable colonies were screened for expression of HS-21a by ^125 I-ABA binding.
Membranes were prepared from stable CHO cell lines in 10 mM Hepes, pH 7.4 containing 0.1 mM benzamidine and 0.1 mM PMSF as described (Mahan, L. C. et al., (1991) Mol. Pharinacol. 40, 1-7). Pellets were resuspended in 5 mM Hepes, pH 7.4/5 mM MgCl2 /0.1 mM benzarnidine/0.1 mM PMSF at a protein concentration of 1-2 mg/mL and were incubated with adenosine deaminase (Boehringer Mannheim), 2 U/mL at 37° C. for 20 minutes. Saturation binding of ^125 I-ABA was carried out on 50 μg of membranes for 120 minutes at 25° C. in a total volume of 100 μl. The assay was terminated by rapid filtration and three washes with ice-cold binding buffer on a Skatron harvester equipped with a receptor binding filtermat (Skatron Instruments, Inc.). The specific activity of ^125 I-ABA, initially 2,200 Ci/mmol, was reduced to 100 Ci/mmol with nonradioactive I-ABA for saturation analysis. Nonspecific binding was measured in the presence of 1 uM I-ABA. The KD and Bmax values were calculated by the EBDA program (McPherson, G. A. (1983) Computer Programs for Biomedicine 17, 107-114). Competition binding of agonists and antagonists was determined with ^125 I-ABA (0.17-2.0 nM, 2000 Ci/mmol). […] Binding data were analyzed and competition curves were constructed by use of the nonlinear regression curve fitting program Graph PAD InPlot, Version 3.0 (Graph Pad Software, San Diego).

Question: `CCCn1c(=O)c2[nH]c(-c3cccc(C=CC(=O)O)c3)nc2n(CCC)c1=O` [BW-3911] was tested. Which “A3 antagonist affinity in words” value did it give?
Answer: potent and selective A3 antagonist
